Patent US20250186600A1, “EXCIPIENT COMPOUNDS FOR PROTEIN FORMULATIONS” (Comera Life Sciences, Inc., priority 2020, published 2025)
Structures can show the parent of a compound that is named as a salt.

What was measured:
[1] = test system: proteins described in Table 50; test: DLS diffusion interaction parameter kD (Example 49); type: physicochemical; conditions: mixed 1:1 with protein solution, 20 mM His HCl pH 6, 25° C.
Description: The resulting solution was titrated to pH 6 by dropwise addition of 1 M hydrochloric acid. After pH adjustment, the buffer was diluted to a final volume of 1 L in a volumetric flask with Type 1 ultrapure water. All excipients used in this Example, listed in Table 50 below, were of the highest purity, and were obtained from Sigma Aldrich (St. Louis, MO) or Cayman Chemical (Ann Arbor, MI).
A series of six test protein solutions were prepared using the proteins described in Table 50, ranging in protein concentration from about 4 mg/mL to about 20 mg/mL, all in 20 mM His HCl buffer at pH 6. […] A second centrifuge step was completed to remove air bubbles. The diffusion interaction parameter (kD) of these protein-excipient formulations was measured by dynamic light scattering (DLS) in dilute solution as a way of probing the impact of excipients on protein-protein interactions (PPI). […] A more negative kD indicated a stronger net attractive PPI and a more positive kD indicated a stronger net repulsive PPI.

[2] = Caffeine solubility with co-solutes during refrigerated storage (Example 61); type: physicochemical; design: key: (PPT)—precipitate observed; (—)—clear solution observed; conditions: 50 mM co-solute, 25 mM histidine pH 6, stored 2 to 5° C.
Description: The resulting microplates were then sealed with microplate tape and stored in a refrigerator with the temperature maintained in the range of 2 to 5° C. Over the course of storage, the microplates were visually observed for evidence of precipitate in the well.

ustekinumab = test: Stabilization at low pH, Sypro orange fluorescence (Example 45); conditions: excipient 5 mg/mL, ustekinumab 1 mg/mL, glycine acidification buffer pH 2.6, Sypro orange fluorescence
[3] = excipient stock concentration 200 mM
[4] = excipient stock concentration 100 mM

In the case of `Nn1nnc2ccccc21` [Excipient 1-aminobenzotriazole, 1-aminobenzotriazole], the “Omalizumab kD” value [1, 3] was -24.1 mL/g and the “Ustekinumab kD” value [1, 3] was 24.0 mL/g.

In the case of `O=C([O-])c1ccccc1.[Na+]` [Sodium benzoate], the “Day 1 (visual observation for precipitate)” value ([2]; caffeine 7.5 mg/mL) was “—”, the “Day 7 (visual observation for precipitate)” value ([2]; caffeine 7.5 mg/mL) was “—” and the “Day 18 (visual observation for precipitate)” value ([2]; caffeine 7.5 mg/mL) was “—”. For the same compound, the “Day 27 (visual observation for precipitate)” value ([2]; caffeine 7.5 mg/mL) was “—”, the “Day 56 (visual observation for precipitate)” value ([2]; caffeine 7.5 mg/mL) was “—” and the “Day 1 (visual observation for precipitate)” value ([2]; caffeine 10 mg/mL) was “—”. The “Day 7 (visual observation for precipitate)” value ([2]; caffeine 10 mg/mL) was “—”, the “Day 18 (visual observation for precipitate)” value ([2]; caffeine 10 mg/mL) was “—” and the “Day 27 (visual observation for precipitate)” value ([2]; caffeine 10 mg/mL) was “—”. For the same compound, the “Day 56 (visual observation for precipitate)” value ([2]; caffeine 10 mg/mL) was “—”, the “Day 1 (visual observation for precipitate)” value ([2]; caffeine 12.5 mg/mL) was “—” and the “Day 7 (visual observation for precipitate)” value ([2]; caffeine 12.5 mg/mL) was “—”. The “Day 18 (visual observation for precipitate)” value ([2]; caffeine 12.5 mg/mL) was “—”, the “Day 27 (visual observation for precipitate)” value ([2]; caffeine 12.5 mg/mL) was “—” and the “Day 56 (visual observation for precipitate)” value ([2]; caffeine 12.5 mg/mL) was “—”. The “Day 1 (visual observation for precipitate)” value ([2]; caffeine 15 mg/mL) was “—”, the “Day 7 (visual observation for precipitate)” value ([2]; caffeine 15 mg/mL) was “—” and the “Day 18 (visual observation for precipitate)” value ([2]; caffeine 15 mg/mL) was “—”. For the same compound, the “Day 27 (visual observation for precipitate)” value ([2]; caffeine 15 mg/mL) was “—”, the “Day 56 (visual observation for precipitate)” value ([2]; caffeine 15 mg/mL) was “PPT” and the “Day 1 (visual observation for precipitate)” value ([2]; caffeine 20 mg/mL) was “—”. The “Day 7 (visual observation for precipitate)” value ([2]; caffeine 20 mg/mL) was “—”, the “Day 18 (visual observation for precipitate)” value ([2]; caffeine 20 mg/mL) was “PPT” and the “Day 27 (visual observation for precipitate)” value ([2]; caffeine 20 mg/mL) was “PPT”. For the same compound, the “Day 56 (visual observation for precipitate)” value ([2]; caffeine 20 mg/mL) was “PPT”.

In the case of `COc1cc(C=CC(=O)O)ccc1O` [4-hydroxy-3-methoxycinnamic acid], the “Omalizumab kD” value [1, 3] was -26.6 mL/g and the “Ustekinumab kD” value [1, 3] was 21.0 mL/g.

For `N=C(N)NC(=O)Cc1c(Cl)cccc1Cl` [Guanfacine HCl], the “Ustekinumab kD” value [1, 4] was 36.1 mL/g.

For `COc1cc(CC(=O)O)ccc1O` [Homovanillic acid], the “Omalizumab kD” value [1, 3] was -21.2 mL/g and the “Ustekinumab kD” value [1, 3] was 5.5 mL/g.

With `O=c1cc(CO)occ1O` [Kojic Acid] the “Omalizumab kD” value [1, 3] was -29.1 mL/g and the “Ustekinumab kD” value [1, 3] was 33.2 mL/g.

With `C#CCN[C@@H]1CCc2ccccc21` [rasagiline mesylate] the “Omalizumab kD” value [1, 4] was -24.1 mL/g and the “Ustekinumab kD” value [1, 4] was 26.5 mL/g.

With `Nc1nc(=O)n([C@@H]2CS[C@H](CO)O2)cc1F` [Emtricitabine] the “% change in stability” value (ustekinumab) was 2.9%.

With `Nc1ccn([C@@H]2O[C@H](COP(=O)(O)O)[C@@H](O)[C@H]2O)c(=O)n1` [Cytidine monophosphate] the “% change in stability” value (ustekinumab) was 83.1%.

In the case of `CC(=O)CC(=O)OCc1ccccc1` [Benzyl acetonacetate], the “Omalizumab kD” value [1, 4] was -27.0 mL/g and the “Ustekinumab kD” value [1, 4] was 26.6 mL/g.

In the case of `Nc1ccc(C(=O)O)cc1` [4-Aminobenzoic acid], the “Omalizumab kD” value [1, 3] was -17.4 mL/g and the “Ustekinumab kD” value [1, 3] was 1.5 mL/g.

With `CN1CCCC1=O` [N-Methyl-2-pyrrolidone] the “Day 1 (visual observation for precipitate)” value ([2]; caffeine 7.5 mg/mL) was “—”, the “Day 7 (visual observation for precipitate)” value ([2]; caffeine 7.5 mg/mL) was “—” and the “Day 18 (visual observation for precipitate)” value ([2]; caffeine 7.5 mg/mL) was “—”. The “Day 27 (visual observation for precipitate)” value ([2]; caffeine 7.5 mg/mL) was “—”, the “Day 56 (visual observation for precipitate)” value ([2]; caffeine 7.5 mg/mL) was “—” and the “Day 1 (visual observation for precipitate)” value ([2]; caffeine 10 mg/mL) was “—”. The “Day 7 (visual observation for precipitate)” value ([2]; caffeine 10 mg/mL) was “—”, the “Day 18 (visual observation for precipitate)” value ([2]; caffeine 10 mg/mL) was “—” and the “Day 27 (visual observation for precipitate)” value ([2]; caffeine 10 mg/mL) was “—”. The “Day 56 (visual observation for precipitate)” value ([2]; caffeine 10 mg/mL) was “—”, the “Day 1 (visual observation for precipitate)” value ([2]; caffeine 12.5 mg/mL) was “—” and the “Day 7 (visual observation for precipitate)” value ([2]; caffeine 12.5 mg/mL) was “—”. The “Day 18 (visual observation for precipitate)” value ([2]; caffeine 12.5 mg/mL) was “—”, the “Day 27 (visual observation for precipitate)” value ([2]; caffeine 12.5 mg/mL) was “—” and the “Day 56 (visual observation for precipitate)” value ([2]; caffeine 12.5 mg/mL) was “PPT”. For the same compound, the “Day 1 (visual observation for precipitate)” value ([2]; caffeine 15 mg/mL) was “—”, the “Day 7 (visual observation for precipitate)” value ([2]; caffeine 15 mg/mL) was “—” and the “Day 18 (visual observation for precipitate)” value ([2]; caffeine 15 mg/mL) was “PPT”. The “Day 27 (visual observation for precipitate)” value ([2]; caffeine 15 mg/mL) was “PPT”, the “Day 56 (visual observation for precipitate)” value ([2]; caffeine 15 mg/mL) was “PPT” and the “Day 1 (visual observation for precipitate)” value ([2]; caffeine 20 mg/mL) was “PPT”. The “Day 7 (visual observation for precipitate)” value ([2]; caffeine 20 mg/mL) was “PPT”, the “Day 18 (visual observation for precipitate)” value ([2]; caffeine 20 mg/mL) was “PPT” and the “Day 27 (visual observation for precipitate)” value ([2]; caffeine 20 mg/mL) was “PPT”. The “Day 56 (visual observation for precipitate)” value ([2]; caffeine 20 mg/mL) was “PPT”.

With `Cc1ncc[nH]1` [Excipient 2-Methylimidazole, 2-Methylimidazole] the “Omalizumab kD” value [1, 3] was -24.5 mL/g and the “Ustekinumab kD” value [1, 3] was -0.5 mL/g.

For `O=C(O)CN(CCN(CC(=O)O)CC(=O)O)CCN(CC(=O)O)CC(=O)O` [Diethylenetriaminepentaacetic acid], the “% change in stability” value (ustekinumab) was 11.8%.

In the case of `OC[C@@H](O)[C@@H](O)CO` [Erythritol], the “% change in stability” value (ustekinumab) was 1.8%.

With `O=S(=O)([O-])CCC[n+]1ccccc1` [3-(1-Pyridinio)-1-propanesulfonate] the “Omalizumab kD” value [1, 3] was -30.2 mL/g and the “Ustekinumab kD” value [1, 3] was 26.7 mL/g.

In the case of `O=C(O)C1=CCNCC1` [Isoguvacine HCl], the “Omalizumab kD” value [1, 3] was -7.9 mL/g and the “Ustekinumab kD” value [1, 3] was 1.0 mL/g.

For `CCN(CC)CCCC(C)Nc1ccnc2cc(Cl)ccc12` (stereo not shown) [Chloroquine Phosphate], the “Omalizumab kD” value [1, 4] was -26.4 mL/g and the “Ustekinumab kD” value [1, 4] was 15.2 mL/g.

For `CN(C)CCN(C)C.Cl` [Tetramethylethylenediamine HCl], the “Omalizumab kD” value [1, 3] was -14.6 mL/g and the “Ustekinumab kD” value [1, 3] was 0.1 mL/g.

In the case of `NC(=O)CN1CCCC1=O` [Piracetam], the “Omalizumab kD” value [1, 3] was -23.6 mL/g and the “Ustekinumab kD” value [1, 3] was 27.3 mL/g.

For `Cc1ncc(CO)c(CO)c1O.Cl` [pyridoxine HCl], the “Omalizumab kD” value [1, 3] was -4.3 mL/g and the “Ustekinumab kD” value [1, 3] was -0.5 mL/g.

For `OCc1ccccc1` [Benzyl alcohol], the “Day 1 (visual observation for precipitate)” value ([2]; caffeine 7.5 mg/mL) was “—”, the “Day 7 (visual observation for precipitate)” value ([2]; caffeine 7.5 mg/mL) was “—” and the “Day 18 (visual observation for precipitate)” value ([2]; caffeine 7.5 mg/mL) was “—”. The “Day 27 (visual observation for precipitate)” value ([2]; caffeine 7.5 mg/mL) was “—”, the “Day 56 (visual observation for precipitate)” value ([2]; caffeine 7.5 mg/mL) was “—” and the “Day 1 (visual observation for precipitate)” value ([2]; caffeine 10 mg/mL) was “—”. The “Day 7 (visual observation for precipitate)” value ([2]; caffeine 10 mg/mL) was “—”, the “Day 18 (visual observation for precipitate)” value ([2]; caffeine 10 mg/mL) was “—” and the “Day 27 (visual observation for precipitate)” value ([2]; caffeine 10 mg/mL) was “—”. For the same compound, the “Day 56 (visual observation for precipitate)” value ([2]; caffeine 10 mg/mL) was “—”, the “Day 1 (visual observation for precipitate)” value ([2]; caffeine 12.5 mg/mL) was “—” and the “Day 7 (visual observation for precipitate)” value ([2]; caffeine 12.5 mg/mL) was “—”. For the same compound, the “Day 18 (visual observation for precipitate)” value ([2]; caffeine 12.5 mg/mL) was “—”, the “Day 27 (visual observation for precipitate)” value ([2]; caffeine 12.5 mg/mL) was “—” and the “Day 56 (visual observation for precipitate)” value ([2]; caffeine 12.5 mg/mL) was “—”. For the same compound, the “Day 1 (visual observation for precipitate)” value ([2]; caffeine 15 mg/mL) was “—”, the “Day 7 (visual observation for precipitate)” value ([2]; caffeine 15 mg/mL) was “—” and the “Day 18 (visual observation for precipitate)” value ([2]; caffeine 15 mg/mL) was “—”. For the same compound, the “Day 27 (visual observation for precipitate)” value ([2]; caffeine 15 mg/mL) was “PPT”, the “Day 56 (visual observation for precipitate)” value ([2]; caffeine 15 mg/mL) was “PPT” and the “Day 1 (visual observation for precipitate)” value ([2]; caffeine 20 mg/mL) was “—”. The “Day 7 (visual observation for precipitate)” value ([2]; caffeine 20 mg/mL) was “PPT”, the “Day 18 (visual observation for precipitate)” value ([2]; caffeine 20 mg/mL) was “PPT” and the “Day 27 (visual observation for precipitate)” value ([2]; caffeine 20 mg/mL) was “PPT”. For the same compound, the “Day 56 (visual observation for precipitate)” value ([2]; caffeine 20 mg/mL) was “PPT”.

With `Cl.NCC(O)c1ccc(O)c(O)c1` (racemic) [DL-Norepinephrine HCl] the “Omalizumab kD” value [1, 4] was -19.8 mL/g and the “Ustekinumab kD” value [1, 4] was 1.5 mL/g.

For `Cn1cnc(CC(=O)O)c1` [1-methyl-4-imidazoleacetic acid], the “Omalizumab kD” value [1, 3] was -21.8 mL/g and the “Ustekinumab kD” value [1, 3] was 47.4 mL/g.

For `C1COCCOCCOCCOCCO1` [15-crown-5 ether], the “Omalizumab kD” value [1, 3] was -25.0 mL/g and the “Ustekinumab kD” value [1, 3] was 26.7 mL/g.

In the case of `O.O.O.O.O.O.O.O.O.O.[Na+].[Na+].[O-]B1OB2OB([O-])OB(O1)O2` [Sodium borate], the “Omalizumab kD” value [1, 3] was -28.8 mL/g and the “Ustekinumab kD” value [1, 3] was 17.9 mL/g.

With `N[C@@H]1CON=C1O` [Cycloserine] the “Omalizumab kD” value [1, 3] was -14.7 mL/g and the “Ustekinumab kD” value [1, 3] was -13.6 mL/g.
